Results reported in US11180474B2 (BRISTOL-MYERS SQUIBB COMPANY, priority 2016, dated 2021).

Assays:
human TLR9 = target: T1, human TLR9 (Homo sapiens, UniProt Q9NR96); test: TLR9 inhibition reporter assay (HEK-Blue cells, SEAP reporter, ODN2006 stimulation); type: cell-based; conditions: HEK-Blue cells overexpressing human TLR9, ODN2006 5 nM
T1 construct: host or cells: HEK-Blue cells
T1 sequence (Q9NR96 26-1032): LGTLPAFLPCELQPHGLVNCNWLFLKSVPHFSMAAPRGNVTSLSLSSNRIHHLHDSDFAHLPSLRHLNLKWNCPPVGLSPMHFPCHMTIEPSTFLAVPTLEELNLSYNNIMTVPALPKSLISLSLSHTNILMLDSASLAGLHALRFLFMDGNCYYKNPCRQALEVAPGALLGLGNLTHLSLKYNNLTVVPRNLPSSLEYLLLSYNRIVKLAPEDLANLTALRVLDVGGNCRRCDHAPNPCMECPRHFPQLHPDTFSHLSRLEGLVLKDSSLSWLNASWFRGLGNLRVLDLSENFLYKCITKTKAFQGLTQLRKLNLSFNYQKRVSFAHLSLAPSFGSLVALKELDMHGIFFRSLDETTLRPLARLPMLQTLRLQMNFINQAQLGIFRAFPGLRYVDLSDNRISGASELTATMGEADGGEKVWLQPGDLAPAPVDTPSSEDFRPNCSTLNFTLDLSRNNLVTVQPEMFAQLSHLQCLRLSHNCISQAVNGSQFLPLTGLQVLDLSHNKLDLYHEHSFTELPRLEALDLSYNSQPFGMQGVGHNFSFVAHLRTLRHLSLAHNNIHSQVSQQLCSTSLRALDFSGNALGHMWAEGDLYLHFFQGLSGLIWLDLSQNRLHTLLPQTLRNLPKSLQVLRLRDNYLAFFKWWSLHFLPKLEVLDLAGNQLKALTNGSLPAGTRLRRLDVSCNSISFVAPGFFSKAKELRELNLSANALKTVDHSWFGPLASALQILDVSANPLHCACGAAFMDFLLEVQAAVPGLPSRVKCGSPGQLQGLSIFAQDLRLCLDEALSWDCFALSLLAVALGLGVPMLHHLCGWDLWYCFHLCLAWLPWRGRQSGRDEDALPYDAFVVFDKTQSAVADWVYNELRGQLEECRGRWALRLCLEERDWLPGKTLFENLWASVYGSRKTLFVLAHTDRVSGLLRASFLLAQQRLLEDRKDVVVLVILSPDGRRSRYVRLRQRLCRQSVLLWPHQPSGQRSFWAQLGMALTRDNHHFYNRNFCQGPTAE
Method in brief: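 Compound treatment: 30 min, RT, 0.05 nM–50 μM final. Agonist: TLR7 gardiquimod 7.5 μM; TLR8 R848 15.9 μM; TLR9 ODN2006 5 nM. Incubation 22 h, 37 °C, 5% CO2. Readout SEAP, HEK-Blue Detection.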

human TLR7 = target: T2, human TLR7 (Homo sapiens, UniProt Q9NYK1); test: TLR7 inhibition reporter assay (HEK-Blue cells, SEAP reporter, gardiquimod stimulation); type: cell-based; conditions: HEK-Blue cells overexpressing human TLR7, gardiquimod 7.5 μM
T2 construct: host or cells: HEK-Blue cells
T2 sequence (Q9NYK1 27-1049): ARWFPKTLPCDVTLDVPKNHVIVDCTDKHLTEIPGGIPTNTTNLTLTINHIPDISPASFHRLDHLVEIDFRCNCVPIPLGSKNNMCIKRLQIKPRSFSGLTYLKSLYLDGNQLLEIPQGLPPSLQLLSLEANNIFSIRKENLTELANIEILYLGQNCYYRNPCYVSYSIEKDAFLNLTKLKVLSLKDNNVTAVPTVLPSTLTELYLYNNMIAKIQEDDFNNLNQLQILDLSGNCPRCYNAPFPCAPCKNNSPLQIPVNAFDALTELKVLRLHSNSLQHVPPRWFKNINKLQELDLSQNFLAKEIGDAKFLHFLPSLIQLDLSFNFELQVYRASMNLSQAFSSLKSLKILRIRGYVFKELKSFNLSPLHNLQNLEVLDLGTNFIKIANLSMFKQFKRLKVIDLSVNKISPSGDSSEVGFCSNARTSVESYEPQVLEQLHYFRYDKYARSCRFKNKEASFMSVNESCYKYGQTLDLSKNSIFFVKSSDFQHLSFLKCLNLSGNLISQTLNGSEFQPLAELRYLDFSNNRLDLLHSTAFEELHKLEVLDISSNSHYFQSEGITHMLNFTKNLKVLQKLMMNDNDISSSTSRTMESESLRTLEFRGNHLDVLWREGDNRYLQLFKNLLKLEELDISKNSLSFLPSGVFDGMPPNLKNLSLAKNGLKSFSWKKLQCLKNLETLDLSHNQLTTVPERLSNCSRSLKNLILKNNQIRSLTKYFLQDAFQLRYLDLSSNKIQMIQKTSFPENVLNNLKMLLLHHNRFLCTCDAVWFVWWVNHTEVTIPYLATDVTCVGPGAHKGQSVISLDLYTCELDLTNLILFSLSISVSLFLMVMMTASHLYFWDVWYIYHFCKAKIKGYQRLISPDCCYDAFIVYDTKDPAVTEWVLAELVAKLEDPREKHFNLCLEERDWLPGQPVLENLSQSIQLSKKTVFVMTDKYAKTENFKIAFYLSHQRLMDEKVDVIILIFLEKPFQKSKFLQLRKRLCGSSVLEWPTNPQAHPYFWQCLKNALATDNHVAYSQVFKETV
Method in brief: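 22 h, 37° C, 5% CO2 incubation; compounds 0.05 nM-50 μM final; TLR7 cells 15000/well, TLR8 20,000/well. Readout: SEAP via HEK-Blue Detection medium. % inhibition = signal reduction versus agonist + DMSO wells, referenced to known inhibitor.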

IC50 (human TLR9) [nM] | IC50 (human TLR7) [nM] | SMILES
729 | 368 | COc1ccc(-c2[nH]c3ccc(C4CCN(CC5CCOCC5)CC4)cc3c2C)cc1OC [Example 17, 2-(3,4-dimethoxyphenyl)-3-methyl-5-(1-((tetrahydro-2H-pyran-4-yl)methyl)piperidin-4-yl)-1H-indole]
238 | 595 | CCC(CC)CN1CCC(N2CCC(c3ccc4[nH]c(-c5ccc(OC)c(OC)c5)c(C)c4c3)CC2)CC1 [Example 54, 2-(3,4-dimethoxyphenyl)-5-(1′-(2-ethylbutyl)-[1,4′-bipiperidin]-4-yl)-3-methyl-1H-indole]
885 | 371 | CCNCC(=O)N1CCC(c2ccc3[nH]c(-c4ccc(OC)c(OC)c4)c(C)c3c2)CC1 [Example 113, 1-(4-(2-(3,4-dimethoxyphenyl)-3-methyl-1H-indol-5-yl)piperidin-1-yl)-2-(ethylamino)ethan-1-one]
169 | 317 | COc1ccc(-c2[nH]c3ccc(C4CCN(C5CCCC(N(C)C)C5)CC4)cc3c2C)cc1OC (stereo not shown) [Example 25, 3-(4-(2-(3,4-dimethoxyphenyl)-3-methyl-1H-indol-5-yl)piperidin-1-yl)-N,N-dimethylcyclohexan-1-amine]
2570 | 1180 | CCCC[C@@H](CO)NCC(=O)N1CCC(c2ccc3[nH]c(-c4ccc(OC)c(OC)c4)c(CC)c3c2)CC1 [Example 174, (S)-1-(4-(2-(3,4-dimethoxyphenyl)-3-ethyl-1H-indol-5-yl)piperidin-1-yl)-2-((1-hydroxyhexan-2-yl)amino)ethan-1-one]
≥ 50000 | ≥ 50000 | COc1ccc(-c2[nH]c3ccc(C4CCN(C5CCN(c6ccccc6)C5)CC4)cc3c2C)cc1OC (stereo not shown) [Example 8, 2-(3,4-dimethoxyphenyl)-3-methyl-5-(1-(1-phenylpyrrolidin-3-yl)piperidin-4-yl)-1H-indole]
251 | 1980 | COc1ccc(-c2[nH]c3ccc(C4CCN(Cc5ccc(-n6ccnc6)cc5)CC4)cc3c2C)cc1OC [Example 39, 5-(1-(4-(1H-imidazol-1-yl)benzyl)piperidin-4-yl)-2-(3,4-dimethoxyphenyl)-3-methyl-1H-indole]
190 | 538 | COc1ccc(-c2[nH]c3ccc(C4CCN(C5CCN(C6CCN(C)CC6)CC5)CC4)cc3c2C)cc1OC [Example 81, 2-(3,4-dimethoxyphenyl)-3-methyl-5-(1″-methyl-[1,4′:1′,4″-terpiperidin]-4-yl)-1H-indole]
2800 | 850 | COc1ccc(-c2[nH]c3ccc(C4CCN(C(C)c5ccccc5)CC4)cc3c2C)cc1OC (stereo not shown) [Example 27, 2-(3,4-dimethoxyphenyl)-3-methyl-5-(1-(1-phenylethyl)piperidin-4-yl)-1H-indole]
787 | 1630 | COc1ccc(-c2[nH]c3ccc(C4CCN(Cc5cccn5C)CC4)cc3c2C)cc1OC [Example 29, 2-(3,4-dimethoxyphenyl)-3-methyl-5-(1-((1-methyl-1H-pyrrol-2-yl)methyl)piperidin-4-yl)-1H-indole]
348 | 1160 | COc1ccc(-c2[nH]c3ccc(C4CCN(Cc5cccc6cccnc56)CC4)cc3c2C)cc1OC [Example 36, 8-((4-(2-(3,4-dimethoxyphenyl)-3-methyl-1H-indol-5-yl)piperidin-1-yl)methyl)quinoline]
2130 | 160 | CCc1c(-c2ccc(OC)c(OC)c2)[nH]c2ccc(C3CCN(C(=O)CNCC(C)(C)CO)CC3)cc12 [Example 164, 1-(4-(2-(3,4-dimethoxyphenyl)-3-ethyl-1H-indol-5-yl)piperidin-1-yl)-2-((3-hydroxy-2,2-dimethylpropyl)amino)ethan-1-one]
6440 | 300 | CCc1c(-c2ccc(OC)c(OC)c2)[nH]c2ccc(C3CCN(C(=O)CN4CCCN(C(C)=O)CC4)CC3)cc12 [Example 166, 2-(4-acetyl-1,4-diazepan-1-yl)-1-(4-(2-(3,4-dimethoxyphenyl)-3-ethyl-1H-indol-5-yl)piperidin-1-yl)ethan-1-one]
318 | 348 | COc1ccc(-c2[nH]c3ccc(C4CCN(C5CCN(C6CCOCC6)CC5)CC4)cc3c2C)cc1OC [Example 26, 2-(3,4-dimethoxyphenyl)-3-methyl-5-(1′-(tetrahydro-2H-pyran-4-yl)-[1,4′-bipiperidin]-4-yl)-1H-indole]
1080 | 589 | COc1ccc(-c2[nH]c3ccc(C4CCN(Cc5cccnc5)CC4)cc3c2C)cc1OC [Example 47, 2-(3,4-dimethoxyphenyl)-3-methyl-5-(1-(pyridin-3-ylmethyl)piperidin-4-yl)-1H-indole]
2280 | 3750 | COc1ccc(-c2[nH]c3ccc(C4CCN(C5CCN(CCCC(=O)O)CC5)CC4)cc3c2C)cc1OC [Example 70, 4-(4-(2-(3,4-dimethoxyphenyl)-3-methyl-1H-indol-5-yl)-[1,4′-bipiperidin]-1′-yl)butanoic acid]
1940 | 191 | COc1ccc(-c2[nH]c3ccc(C4CCN(Cc5ccc(N(C)C)cc5)CC4)cc3c2C(C)C)cc1OC [Example 270, 4-((4-(2-(3,4-dimethoxyphenyl)-3-isopropyl-1H-indol-5-yl)piperidin-1-yl)methyl)-N,N-dimethylaniline]
3720 | ≥ 50000 | COc1ccc(-c2[nH]c3ccc(C4CCN(Cc5cc6ccccc6n5C)CC4)cc3c2C)cc1OC [Example 33, 2-(3,4-dimethoxyphenyl)-3-methyl-5-(1-((1-methyl-1H-indol-2-yl)methyl)piperidin-4-yl)-1H-indole]
2170 | 280 | CCc1c(-c2ccc(OC)c(OC)c2)[nH]c2ccc(C3CCN(C(=O)CNC45CC6CC(CC(O)(C6)C4)C5)CC3)cc12 [Example 163, 1-(4-(2-(3,4-dimethoxyphenyl)-3-ethyl-1H-indol-5-yl)piperidin-1-yl)-2-(((1r,3s,5R,7S)-3-hydroxyadamantan-1-yl)amino) ethan-1-one]
614 | 1310 | COc1ccc(-c2[nH]c3ccc(C4CCN(C[C@@H]5CCCN5)CC4)cc3c2C)cc1OC [Example 107, (S)-2-(3,4-dimethoxyphenyl)-3-methyl-5-(1-(pyrrolidin-2-ylmethyl)piperidin-4-yl)-1H-indole]
